Results published in patent publication US7691842B2, “Tricyclic 6-alkylidene-penems as β-lactamase inhibitors” (Wyeth LLC, priority 2002, dated 2010).
Counter-ions that a name gives are not always drawn. Like-named read-outs stand apart in the source and are kept apart here.

Experiments:
[1] = target: class A β-lactamase Imi-1 (Enterobacter cloacae, UniProt Q46991); test: β-Lactamase inhibition, IC50 determination (nitrocefin, spectrophotometric); assay type: biochemical
Description: (§1) IC50 Determination for the Penem Inhibitor
(§2) β-Lactamase inhibitory activity of the penem inhibitors was determined spectrophotometrically as described by Bush et al., [Bush, K., Macalintal, C., Rasmussen, B. A., Lee, V. and Yang, Y. Antimicrobial Agents and Chemotherapy 1993, 37, 851]. Homogeneously purified class A β-lactamases TEM-1 from E. Coli and Imi-1 from Enterobacter cloacae, class B enzyme CcrA from Bacteroides fragilis and class C enzyme AmpC from Enterobacter cloaca were employed in the assay. The enzyme concentrations for TEM-1, Imi-1, CcrA and AmpC were 4.3, 7.1, 1.2 and 2.1 nM, respectively. A wide range of inhibitor concentrations were prepared in 50 mM PO4, pH 7.0 to include the possible IC50 values. The substrate used to initiate the enzyme reaction was nitrocefin at 50 μg/ml in the same buffer as the inhibitor. Initially the enzyme and inhibitor (20 μl each) were preincubated for 10 minutes at 25° C. prior to the addition of 160 μl volume of nitrocefin. Initial rates of hydrolysis were monitored for 5 minutes at 495 nm using a Molecular Devices Spectra Max 250 with kinetic protocol of SoftMax Program. Readings from the Spectra Max 250 were exported and transferred to Microsoft Excel. The percent of inhibition of each inhibitor concentration was calculated based on the control enzyme activity. The inhibitor concentration that caused a 50% reduction in the enzymatic activity (IC50) was determined graphically.

class B enzyme CcrA = class B enzyme CcrA (Bacteroides fragilis, UniProt P25910); test: as above; assay type: biochemical; details: enzyme 1.2 nM; 10 min preincubation at 25° C.; nitrocefin 50 μg/ml; 50 mM PO4, pH 7.0; read-out: IC50 (nM) Class B Ccr
Description: as §1, §2

[2] = target: class A β-lactamase TEM-1 (Escherichia coli, UniProt P62593); test: as above; assay type: biochemical, E. Coli
Description: as §1, §2

class C enzyme AmpC = class C enzyme AmpC (Enterobacter cloacae, UniProt P05364); test: biochemical; design: species or system Enterobacter cloaca
Description: as §1, §2

E. Coli GC2844 = test: Antimicrobial susceptibility testing, microbroth dilution MIC of piperacillin + inhibitor; assay type: cell-based; details: piperacillin combined with constant 4 μg/ml inhibitor; Inc: 35° C. for 18 hours
Description: (§3) Antimicrobial susceptibility testing. The in vitro activities of the antibiotics were determined by the microbroth dilution method as recommended by the National Committee for Clinical Laboratory Standards (NCCLS). (NCCLS. 2000. Methods for Dilution Antimicrobial Susceptibility Tests for Bacteria That Grow Aerobically; Approved Standards: M7-A5, vol. 19. National Committee for Clinical Laboratory Standards, Villanova, Pa.). Mueller-Hinton it broth (MHBII)(BBL Cockeysville, Md.), was used for the testing procedure. Microtiter plates containing 50 μl per well of two-fold serial dilutions of piperacillin combined with a constant amount (4 μg/ml) of a B-lactamase inhibitor (final concentration) were inoculated with 50 μl of inoculum to yield the appropriate density (10^5 CFU/ml) in 100 μl. The plates were incubated for 18-22 hours at 35° C. in ambient air.

E. Coli GC2920 (IRT-2) = test: as above; assay type: cell-based; details: piperacillin combined with constant 4 μg/ml inhibitor; Inc: 35° C. for 18 hours
Description: as §3

E. Coli GC2203 = test: as above; assay type: cell-based; details: piperacillin combined with constant 4 μg/ml inhibitor; Inc: 35° C. for 18 hours
Description: as §3

[3] = tested on: S. Marcescens GC1781 Sme-1 + Ampc; test: as above; assay type: cell-based; details: piperacillin combined with constant 4 μg/ml inhibitor; Inc: 35° C. for 18 hours
Description: as §3

E. Coli GC2894 (Ampc) = test: as above; assay type: cell-based; details: piperacillin combined with constant 4 μg/ml inhibitor; Inc: 35° C. for 18 hours
Description: as §3

E. Coli GC2847 (TEM-1) = test: as above; assay type: cell-based; details: piperacillin combined with constant 4 μg/ml inhibitor; Inc: 35° C. for 18 hours
Description: as §3

[4] = tested on: P. aeruginos GC1764 (Ampc); test: as above; assay type: cell-based; details: piperacillin combined with constant 4 μg/ml inhibitor; Inc: 35° C. for 18 hours
Description: as §3

E. Cloacae GC1477 (Ampc) = test: as above; assay type: cell-based; details: piperacillin combined with constant 4 μg/ml inhibitor; Inc: 35° C. for 18 hours
Description: as §3

[5] = enzyme 7.1 nM, 10 min preincubation at 25° C., nitrocefin 50 μg/ml, 50 mM PO4, pH 7.0, read-out: IC50 (nM) Class A Imi
[6] = enzyme 4.3 nM, 10 min preincubation at 25° C., nitrocefin 50 μg/ml, 50 mM PO4, pH 7.0, read-out: IC50 (nM) Class A TEM-1
[7] = enzyme 2.1 nM, 10 min preincubation at 25° C., nitrocefin 50 μg/ml, 50 mM PO4, pH 7.0, read-out: IC50 (nM) Class C AmpC

class B enzyme CcrA, sequence (P25910 19-249): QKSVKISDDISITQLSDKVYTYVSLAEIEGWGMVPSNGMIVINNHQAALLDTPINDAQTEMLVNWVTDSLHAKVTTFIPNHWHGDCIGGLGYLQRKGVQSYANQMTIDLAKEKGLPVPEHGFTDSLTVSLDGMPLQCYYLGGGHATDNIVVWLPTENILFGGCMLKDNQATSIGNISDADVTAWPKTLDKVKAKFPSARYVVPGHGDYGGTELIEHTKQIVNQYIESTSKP
class C enzyme AmpC, sequence (P05364 21-381): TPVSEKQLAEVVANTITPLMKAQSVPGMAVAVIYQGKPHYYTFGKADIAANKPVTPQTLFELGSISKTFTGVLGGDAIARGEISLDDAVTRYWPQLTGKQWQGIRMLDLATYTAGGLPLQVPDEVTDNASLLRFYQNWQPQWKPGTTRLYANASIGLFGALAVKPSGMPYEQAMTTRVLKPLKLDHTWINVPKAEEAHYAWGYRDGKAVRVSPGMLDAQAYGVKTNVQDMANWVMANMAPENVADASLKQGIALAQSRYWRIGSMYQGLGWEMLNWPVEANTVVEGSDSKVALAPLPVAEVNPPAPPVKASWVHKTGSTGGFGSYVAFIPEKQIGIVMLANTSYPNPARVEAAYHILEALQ
class A β-lactamase Imi-1, sequence (Q46991 entry or part of it): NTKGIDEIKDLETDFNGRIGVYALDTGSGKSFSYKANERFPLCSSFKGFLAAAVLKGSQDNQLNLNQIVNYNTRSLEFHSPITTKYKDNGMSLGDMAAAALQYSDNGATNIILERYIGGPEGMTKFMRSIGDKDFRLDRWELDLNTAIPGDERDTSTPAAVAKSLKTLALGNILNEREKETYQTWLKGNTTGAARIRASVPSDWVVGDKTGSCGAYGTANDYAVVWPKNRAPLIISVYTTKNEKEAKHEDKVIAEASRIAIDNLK
class A β-lactamase TEM-1, sequence (P62593 24-286 limits assumed): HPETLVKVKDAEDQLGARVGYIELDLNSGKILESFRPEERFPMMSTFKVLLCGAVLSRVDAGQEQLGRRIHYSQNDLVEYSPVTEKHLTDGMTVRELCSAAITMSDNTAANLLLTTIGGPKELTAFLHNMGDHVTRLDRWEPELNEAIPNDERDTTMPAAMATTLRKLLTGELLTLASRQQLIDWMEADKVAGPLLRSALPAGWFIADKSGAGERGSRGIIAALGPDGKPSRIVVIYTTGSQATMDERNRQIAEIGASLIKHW

Structure (SMILES)	IC50 [1, 5] [nM]	IC50 (class B enzyme CcrA) [nM]	IC50 [2, 6] [nM]	IC50 (class C enzyme AmpC; [7]) [nM]	Minimal Inhibitory Concentration E. Coli GC2844 (E. Coli GC2844) [µg/mL]	Minimal Inhibitory Concentration E. Coli GC2920 (IRT-2) (E. Coli GC2920 (IRT-2)) [µg/mL]	Minimal Inhibitory Concentration E. Coli GC2203 (E. Coli GC2203) [µg/mL]	Minimal Inhibitory Concentration S. Marcescens GC1781 Sme-1 + Ampc [3] [µg/mL]	Minimal Inhibitory Concentration E. Coli GC2894 (Ampc) (E. Coli GC2894 (Ampc)) [µg/mL]	Minimal Inhibitory Concentration E. Coli GC2847 (TEM-1) (E. Coli GC2847 (TEM-1)) [µg/mL]	Minimal Inhibitory Concentration P. aeruginos GC1764 (Ampc) [4] [µg/mL]	Minimal Inhibitory Concentration E. Cloacae GC1477 (Ampc) (E. Cloacae GC1477 (Ampc)) [µg/mL]	IC50 [1] [nM]	IC50 [2] [nM]	IC50 (class C enzyme AmpC) [nM]
O=C([O-])C1=CS[C@@H]2/C(=C\c3cc4c(s3)-c3cccnc3SC4)C(=O)N12.[Na+] [Example 21, (5R,6Z)-7-oxo-6-(4H-thieno[2′,3′:45]thiopyrano[2,3-b]pyridin-2-ylmethylene)-4-thia-1-azabicyclo[3.2.0]hept-2-ene-2-carboxylic acid (Sodium salt)]	580	210	11	3.7	2	4	2	2	32	>64	64	>64			
Cn1c2ccccc2n2cc(/C=C3/C(=O)N4C(C(=O)O)=CS[C@H]34)nc12 [Example 20, (5R),(6Z)-8-[(9-methyl-9H-imidazo[1,2-a]benzimidazol-2-yl)methylene]-7-oxo-4-thia-1-azabicyclo[3.2.0]hept-2-ene-2-carboxylic acid]					4	4	2	2	32	>64	32	>64			
O=C(O)C1=CS[C@@H]2/C(=C\c3cc4oc5c(n4n3)CCOC5)C(=O)N12 [Example 31, (5R,6Z)-6-(7,8-dihydro-5H-pyrano[4,3-d]pyrazolo[5,1-b][1,3]oxazol-2-ylmethylene)-7-oxo-4-thia-1-azabicyclo[3.2.0]hept-2-ene-2-carboxylic acid, sodium salt]		130											140	4.3	4
O=C(O)C1=CS[C@@H]2/C(=C/c3ccc4c(c3)N(Cc3ccccc3)C(=O)c3ccccc3O4)C(=O)N12 [Example 9, (5R,6E)-6-[(10-benzyl-ii-oxo-10,11-dihydrodibenzo[b,f][1,4]oxazepin-8-yl)methylene]-7-oxo-4-thia-1-azabicyclo[3.2.0]hept-2-ene-2-carboxylic Acid]		220											3600	3.5	4.5
O=C(O)C1=CS[C@@H]2/C(=C\c3cn4c(cnc5ccccc54)n3)C(=O)N12 [Example 6, (5R),(6Z)-6-(Imidazo[1,2-a]quinoxaline-2-ylmethylene)-7-oxo-4-thia-1-azabicyclo[3.2.0]hepto-2-ene-2-carboxylic acid, sodium salt]		350											210	2.5	1.2
O=C(O)C1=CS[C@@H]2/C(=C\c3cn4c(nc5ccccc54)s3)C(=O)N12 [Example 17, (5R),(6Z)-7-oxo-6-([1,3]thiazolo[3,2-a]benzimidazol-2-ylmethylene)-4-thia-1-azabicyclo[3.2.0]hept-2-ene-2-carboxylic acid]					2	4	2	8	>64	64	32	>64			
COc1nc2nc(/C=C3/C(=O)N4C(C(=O)O)=CS[C@H]34)cn2c2c1CCC2 [Example 26, (5R,6Z)-6-[(5-methoxy-7,8-dihydro-6H-cyclopenta[e]imidazo[1,2-a]pyrimidin-2-yl)methylene]-7-oxo-4-thia-1-azabicyclo[3.2.0]hept-2-ene-2-carboxylic acid, sodium salt]		420											63	48	10
O=C(O)C1=CS[C@@H]2/C(=C\c3cn4nc5c(c4s3)CCC5)C(=O)N12 [Example 18, (5R),(6Z)-6-(7,8-dihydro-6H-cyclopenta[3,4]pyrazolo[5,1-b][1,3]thiazol-2-ylmethylene)-7-oxo-64-thia-1-azabicyclo[3.2.0]hept-2-ene-2-carboxylic acid]					2	4	4	4	>64	>64	64	>64			
CCOC(=O)N1CCc2c(oc3cc(/C=C4/C(=O)N5C(C(=O)[O-])=CS[C@H]45)nn23)C1.[Na+] [Example 33, (5R,6Z)-6-{[6-(ethoxycarbonyl)-5,6,7,8-tetrahydropyrazolo[5′,1′:2,3][1,3]oxazolo[5,4-c]pyridin-2-yl]methylene}-7-oxo-4-thia-1-1-azabicyclo[3.2.0]hept-2-ene-2-carboxylic acid, sodium salt]	360	160	10	140	2	4	2	2	64	64	>64	>64			
Cc1cccc2sc3nc(/C=C4/C(=O)N5C(C(=O)O)=CS[C@H]45)cn3c12 [Example 13]		228											102	8.7	1.6
